The NIST ThermoML archive (doi:10.1021/acs.jced.6b00867)

Legend:
[1] = refractive index (Na D-line) (dimensionless); conditions: 101 kPa, Liquid, Standard Abbe refractometry
[2] = refractive index (Na D-line) (dimensionless); xn = mol fraction of the nth substance listed; conditions: 101 kPa, Liquid, Standard Abbe refractometry
[3] = 352.2 K; Liquid; Ebulliometric method (Recirculating still)

CC1CCC(=O)O1 (stereo not drawn) [γ-valerolactone]
[1]
Conditions | refractive index
293.2 K | 1.4339
298.2 K | 1.4316

CC1CCC(=O)O1 (stereo not drawn) [γ-valerolactone] + O=CO
refractive index, [2]
Conditions | 293.2 K | 298.2 K
x2 = 0 | 1.4339 | 1.4316
x2 = 0.0697 | 1.4314 | 1.4292
x2 = 0.1233 | 1.4295 | 1.4272
x2 = 0.2013 | 1.4265 | 1.4245
x2 = 0.3394 | 1.421 | 1.4191
x2 = 0.4898 | 1.4138 | 1.4118
x2 = 0.593 | 1.4078 | 1.4058
x2 = 0.6258 | 1.4056 | 1.4036
x2 = 0.6744 | 1.4021 | 1.4002
x2 = 0.7799 | 1.3941 | 1.3921
x2 = 0.8539 | 1.3875 | 1.3856
x2 = 0.8902 | 1.3839 | 1.3821
x2 = 0.9828 | 1.3739 | 1.3719

O=CO [formic acid] + CC1CCC(=O)O1
[2], x1 = 1
Conditions | refractive index
293.2 K | 1.3714
298.2 K | 1.3699

O=CO [formic acid]
Conditions | vapor or sublimation pressure [kPa]
[3] | 51

[1]
Conditions | refractive index
293.2 K | 1.3714
298.2 K | 1.3699
